Test results: US10246456B2, “IRAK4 inhibiting agents” (BIOGEN MA INC., priority 2014, dated 2019)

Tests used:
IRAK4 = IRAK4 (Homo sapiens (Human), UniProt Q9NWZ3); assay: IRAK-4 AlphaScreen biochemical kinase assay; settings: 1 nM IRAK4, 1 mM ATP, 3.5 h at RT
In short: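 AlphaScreen read-out: streptavidin beads bind the biotinylated peptide and protein A beads bind the anti-phosphothreonine antibody, so energy transfer reports phosphorylation of the peptide. The kinase is human IRAK-4.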

IL-6 in A549 cells = assay: Cell-based IL-6 ELISA assay in IL-1beta stimulated A549 cells; settings: 2 ng/ml human IL-1beta overnight
Experimental: The cell-based assays is based on IL-6 ELISA quantification. Briefly, A549 cells are cultured in DMEM with 10% FBS medium. When cells reach 80% confluence they are trypsin treated and seeded 180 ul/well in 96-well plate at 2.5×10^4 cells/well. Then, 20 ul of compound serial dilutions (starting at 10 uM, 10 points) are added to the cell plate; incubate for 30 min at 37 C and stimulated with 2 ng/ml human IL-1beta 37 C, 5% CO2 overnight. The next day 100 ul of cell supernatant per well are analyzed on a Human IL-6 Quantikine ELISA kit from R&D Systems.

Chain of IRAK4 (Q9NWZ3 whole entry, species assumed): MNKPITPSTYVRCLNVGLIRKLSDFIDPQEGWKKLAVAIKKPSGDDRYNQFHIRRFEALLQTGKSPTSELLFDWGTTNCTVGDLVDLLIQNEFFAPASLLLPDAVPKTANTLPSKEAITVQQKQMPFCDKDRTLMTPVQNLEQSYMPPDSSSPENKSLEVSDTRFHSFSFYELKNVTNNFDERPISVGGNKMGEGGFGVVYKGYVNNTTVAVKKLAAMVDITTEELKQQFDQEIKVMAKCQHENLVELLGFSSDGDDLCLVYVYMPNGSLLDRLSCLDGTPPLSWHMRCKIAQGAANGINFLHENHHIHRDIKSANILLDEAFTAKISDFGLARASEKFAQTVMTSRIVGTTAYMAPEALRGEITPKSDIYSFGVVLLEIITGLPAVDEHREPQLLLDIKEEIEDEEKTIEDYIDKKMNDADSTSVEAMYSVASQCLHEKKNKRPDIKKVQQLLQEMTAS

For `C[C@H](N)c1cccc(-c2cc(-c3cc[nH]n3)c3cnn(-c4cccc(CO)n4)c3c2)n1` [Example 381, (S)-(6-(6-(6-(1-aminoethyl)pyridin-2-yl)-4-(1H-pyrazol-3-yl)-1H-indazol-1-yl)pyridin-2-yl)methanol], the IC50 (IRAK4) was < 100 nM and the EC50 (IL-6 in A549 cells) was 1000 to 10000 nM.
`CCC[C@H](N)c1cccc(-c2cc(N3CC(CO)(CCl)C3)c3cnn(-c4cccc(CO)n4)c3c2)n1` [Example 332, (S)-(1-(6-(6-(1-aminobutyl)pyridin-2-yl)-1-(6-(hydroxymethyl)pyridin-2-yl)-1H-indazol-4-yl)-3-(chloromethyl)azetidin-3-yl)methanol] was tested, and the IC50 (IRAK4) was < 100 nM and the EC50 (IL-6 in A549 cells) was ≤ 1000 nM.
With `CCC[C@H](N)c1cccc(-c2cc(-c3ccn(C)n3)c3cnn(-c4cccc(CO)n4)c3c2)n1` [Example 361] the IC50 (IRAK4) was < 100 nM and the EC50 (IL-6 in A549 cells) was ≤ 1000 nM.
In the case of `Cc1cccc(-n2ncc3c(-c4ncco4)cc(-c4cccc(C(C)N)n4)cc32)n1` (stereo not drawn) [Example 542, 1-(6-(1-(6-methylpyridin-2-yl)-4-(oxazol-2-yl)-1H-indazol-6-yl)pyridin-2-yl)ethanamine], the IC50 (IRAK4) is reported as < 100 nM and the EC50 (IL-6 in A549 cells) is reported as 1000 to 10000 nM.
In the case of `CCC[C@H](N)c1cccc(-c2cc(F)c3cnn(-c4cccc(CO)n4)c3c2)n1` [Example 474, (6-{6-[6-((S)-1-Amino-butyl)-pyridin-2-yl]-4-fluoro-indazol-1-yl}-pyridin-2-yl)-methanol], the IC50 (IRAK4) is reported as < 100 nM and the EC50 (IL-6 in A549 cells) is reported as ≤ 1000 nM.
`C[C@H](N)c1cccc(-c2cc(-c3ccn(C)n3)c3cnn(-c4cccc(CO)n4)c3c2)n1` [Example 357, (S)-(6-(6-(6-(1-aminoethyl)pyridin-2-yl)-4-(1-methyl-1H-pyrazol-3-yl)-1H-indazol-1-yl)pyridin-2-yl)methanol] was tested, and the IC50 (IRAK4) was < 100 nM and the EC50 (IL-6 in A549 cells) was ≤ 1000 nM.
`CCC[C@H](N)c1cccc(-c2cc(N3CCCC3CO)c3cnn(-c4cccc(CO)n4)c3c2)n1` (stereo partly drawn) [Example 326, (1-(6-(6-((S)-1-aminobutyl)pyridin-2-yl)-1-(6-(hydroxymethyl)pyridin-2-yl)-1H-indazol-4-yl)pyrrolidin-2-yl)methanol] was tested, and the IC50 (IRAK4) was < 100 nM and the EC50 (IL-6 in A549 cells) was ≤ 1000 nM.
In the case of `CCC[C@H](N)c1cccc(-c2cc(N3CCSCC3)c3cnn(-c4cccc(CO)n4)c3c2)n1` [Example 338, (S)-(6-(6-(6-(1-aminobutyl)pyridin-2-yl)-4-thiomorpholino-1H-indazol-1-yl)pyridin-2-yl)methanol], the IC50 (IRAK4) is reported as < 100 nM and the EC50 (IL-6 in A549 cells) is reported as ≤ 1000 nM.
`CCC[C@H](N)c1cccc(-c2cc(OC)c3cnn(-c4nccc(C(F)(F)F)n4)c3c2)n1` [Example 504, (S)-1-(6-(4-methoxy-1-(4-(trifluoromethyl)pyrimidin-2-yl)-1H-indazol-6-yl)pyridin-2-yl)butan-1-amine] was tested, and the IC50 (IRAK4) was < 100 nM and the EC50 (IL-6 in A549 cells) was ≤ 1000 nM.
`CCC[C@H](N)c1cccc(-c2cc(OC)c3cnn(-c4cncc(CO)n4)c3c2)n1` [Example 489, (S)-(6-(6-(6-(1-aminobutyl)pyridin-2-yl)-4-methoxy-1H-indazol-1-yl)pyrazin-2-yl)methanol] was tested, and the IC50 (IRAK4) was < 100 nM and the EC50 (IL-6 in A549 cells) was ≤ 1000 nM.
With `CCC[C@H](N)c1cccc(-c2cc(N3CCC(F)(F)CC3)c3cnn(-c4cccc(CO)n4)c3c2)n1` [Example 346, (S)-(6-(6-(6-(1-aminobutyl)pyridin-2-yl)-4-(4,4-difluoropiperidin-1-yl)-1H-indazol-1-yl)pyridin-2-yl)methanol] the IC50 (IRAK4) was < 100 nM and the EC50 (IL-6 in A549 cells) was ≤ 1000 nM.
For `CC[C@H](N)c1cccc(-c2cc(NC)c3cnn(-c4cccc(CO)n4)c3c2)n1` [Example 485, (S)-(6-(6-(6-(1-aminopropyl)pyridin-2-yl)-4-(methylamino)-1H-indazol-1-yl)pyridin-2-yl)methanol], the IC50 (IRAK4) was < 100 nM and the EC50 (IL-6 in A549 cells) was ≤ 1000 nM.
`CCC[C@H](N)c1cccc(-c2ccc3cnn(-c4nccc(C(F)F)n4)c3c2)n1` [Example 486, (S)-1-(6-(1-(4-(difluoromethyl)pyrimidin-2-yl)-1H-indazol-6-yl)pyridin-2-yl)butan-1-amine] was tested, and the IC50 (IRAK4) was < 100 nM and the EC50 (IL-6 in A549 cells) was ≤ 1000 nM.
`CCC[C@H](N)c1cccc(-c2cc(OCC)c3cnn(-c4cncc(CO)n4)c3c2)n1` [Example 499, (S)-(6-(6-(6-(1-aminobutyl)pyridin-2-yl)-4-ethoxy-1H-indazol-1-yl)pyrazin-2-yl)methanol] was tested, and the IC50 (IRAK4) was < 100 nM and the EC50 (IL-6 in A549 cells) was ≤ 1000 nM.
In the case of `CCC[C@H](N)c1cccc(-c2cc(OC)c3cnn(-c4cccc(CO)n4)c3c2)n1` [Example 463, (S)-(6-(6-(6-(1-aminobutyl)pyridin-2-yl)-4-methoxy-1H-indazol-1-yl)pyridin-2-yl)methanol], the IC50 (IRAK4) is reported as < 100 nM and the EC50 (IL-6 in A549 cells) is reported as ≤ 1000 nM.
With `C[C@H](N)c1cccc(-c2cc(-n3cncn3)c3cnn(-c4cccc(CO)n4)c3c2)n1` [Example 355, (S)-(6-(6-(6-(1-aminoethyl)pyridin-2-yl)-4-(1H-1,2,4-triazol-1-yl)-1H-indazol-1-yl)pyridin-2-yl)methanol] the IC50 (IRAK4) was < 100 nM and the EC50 (IL-6 in A549 cells) was ≤ 1000 nM.
With `CC(O)CC(N)c1cccc(-c2ccc3cnn(-c4cccc(CO)n4)c3c2)n1` (stereo not drawn) [Example 508, 4-amino-4-(6-(1-(6-(hydroxymethyl)pyridin-2-yl)-1H-indazol-6-yl)pyridin-2-yl)butan-2-ol] the IC50 (IRAK4) was < 100 nM and the EC50 (IL-6 in A549 cells) was ≤ 1000 nM.
In the case of `CC[C@@H](F)[C@H](N)c1cccc(-c2cc(OCCOC)c3cnn(-c4cccc(CO)n4)c3c2)n1` [Example 453, (6-(6-(6-((1R,2R)-1-amino-2-fluorobutyl)pyridin-2-yl)-4-(2-methoxyethoxy)-1H-indazol-1-yl)pyridin-2-yl)methanol], the IC50 (IRAK4) is reported as < 100 nM and the EC50 (IL-6 in A549 cells) is reported as ≤ 1000 nM.
In the case of `Cc1cc(-c2cc(-c3cccc([C@H](C)N)n3)cc3c2cnn3-c2cccc(CO)n2)n[nH]1` [Example 366, (S)-(6-(6-(6-(1-aminoethyl)pyridin-2-yl)-4-(5-methyl-1H-pyrazol-3-yl)-1H-indazol-1-yl)pyridin-2-yl)methanol], the IC50 (IRAK4) is reported as < 100 nM and the EC50 (IL-6 in A549 cells) is reported as ≤ 1000 nM.
`C[C@H](N)c1cccc(-c2ccc3cnn(-c4cncc(CO)n4)c3c2)n1` [Example 397, (S)-(6-(6-(6-(1-aminoethyl)pyridin-2-yl)-1H-indazol-1-yl)pyrazin-2-yl)methanol] was tested, and the IC50 (IRAK4) was 100 to 1000 nM and the EC50 (IL-6 in A549 cells) was ≤ 1000 nM.
With `CCC[C@H](N)c1cccc(-c2cc(N3CCCC(O)C3)c3cnn(-c4cccc(CO)n4)c3c2)n1` (stereo partly drawn) [Example 330, 1-(6-(6-((S)-1-aminobutyl)pyridin-2-yl)-1-(6-(hydroxymethyl)pyridin-2-yl)-1H-indazol-4-yl)piperidin-3-ol] the IC50 (IRAK4) was < 100 nM and the EC50 (IL-6 in A549 cells) was ≤ 1000 nM.
With `CCOc1cc(-c2cccc(C(N)C3COC3)n2)cc2c1cnn2-c1cccc(CO)n1` (stereo not drawn) [Example 447, (6-(6-(6-(amino(oxetan-3-yl)methyl)pyridin-2-yl)-4-ethoxy-1H-indazol-1-yl)pyridin-2-yl)methanol] the IC50 (IRAK4) was < 100 nM and the EC50 (IL-6 in A549 cells) was ≤ 1000 nM.
`CCC[C@H](N)c1cccc(-c2cc(N3CC(F)(F)C3)c3cnn(-c4cccc(CO)n4)c3c2)n1` [Example 331, (S)-(6-(6-(6-(1-aminobutyl)pyridin-2-yl)-4-(3,3-difluoroazetidin-1-yl)-1H-indazol-1-yl)pyridin-2-yl)methanol] was tested, and the IC50 (IRAK4) was < 100 nM and the EC50 (IL-6 in A549 cells) was ≤ 1000 nM.
With `C[C@H](N)c1cccc(-c2cc(C#N)c3cnn(-c4cccc(CO)n4)c3c2)n1` [Example 537, (S)-6-(6-(1-aminoethyl)pyridin-2-yl)-1-(6-(hydroxymethyl)pyridin-2-yl)-1H-indazole-4-carbonitrile] the IC50 (IRAK4) was < 100 nM and the EC50 (IL-6 in A549 cells) was ≤ 1000 nM.
